From patent publication US20210298307A1 (priority 2020, published 2021)
Read-outs that look alike come from different tables or passages of the source. Marks after values point to notes of the source that are not given here.

How the values were obtained:
[1] = tested on: Ralstonia solanacearum; type: in vivo; settings: beef tomato, foliar spray at 3 and 10 dpi, 5 mg/L IBA and/or 15 mg/L Kinetin in 0.1% (v/v) Tween 80; for Severity score at days post infection (dpi): 9 / Severity score at days post infection (dpi): 11 / Severity score at days post infection (dpi): 13: 0-5 disease scale, mean n=12; for Severity score at days post infection (dpi): 9: 9 dpi; for Severity score at days post infection (dpi): 11: 11 dpi; for Severity score at days post infection (dpi): 13 / Survival Rate (13 dpi): 13 dpi; for Survival Rate (13 dpi): n=12
[2] = tested on: R. solanacearum; type: in vivo, Ralstonia solanacearum; settings: beef tomato, soil drench at 3 and 10 dpi, 5 mg/L IBA and/or 15 mg/L Kinetin; for Severity score at days post infection (dpi): 9 / Severity score at days post infection (dpi): 11 / Severity score at days post infection (dpi): 13: 0-5 disease scale, mean n=12; for Severity score at days post infection (dpi): 9: 9 dpi; for Severity score at days post infection (dpi): 11: 11 dpi; for Severity score at days post infection (dpi): 13 / Survival Rate (13 dpi): 13 dpi; for Survival Rate (13 dpi): n=12
[3] = tested on: R. solanacearum; type: in vivo, Ralstonia solanacearum; settings: beef tomato, soil drench before inoculation and at 3 and 10 dpi, 5 mg/L IBA and/or 20 mg/L Kinetin; for Severity score at days post infection (dpi): 9 / Severity score at days post infection (dpi): 11 / Severity score at days post infection (dpi): 13: 0-5 disease scale, mean n=12; for Severity score at days post infection (dpi): 9: 9 dpi; for Severity score at days post infection (dpi): 11: 11 dpi; for Severity score at days post infection (dpi): 13 / Survival Rate (13 dpi): 13 dpi; for Survival Rate (13 dpi): n=12

SMILES	Severity score at days post infection (dpi): 9 [1]	Severity score at days post infection (dpi): 11 [1]	Severity score at days post infection (dpi): 13 [1]	Survival Rate (13 dpi) [1]	Severity score at days post infection (dpi): 9 [2]	Severity score at days post infection (dpi): 11 [2]	Severity score at days post infection (dpi): 13 [2]	Survival Rate (13 dpi) [2]	Severity score at days post infection (dpi): 9 [3]	Severity score at days post infection (dpi): 11 [3]	Severity score at days post infection (dpi): 13 [3]	Survival Rate (13 dpi) [3]
O=C(O)CCCc1c[nH]c2ccccc12 [IBA, indole-3-butyric acid]	0.25*	2.50	3.25	58%	0.25*	1.00*	2.50	67%	0.92	1.58	2.17*	75%
c1coc(CNc2ncnc3nc[nH]c23)c1 [Kinetin, N6-furfuryladenine]	0.42	2.08	3.17	58%	0.25*	1.08*	2.58	75%	0.83	1.42	2.08*	75%
